Read-outs that look alike come from different tables or passages of the source.
Assays:
[1] = target: angiotensin II AT1 receptor; assay: Assay A: Angiotensin II binding activity, rat uterine membrane preparation, 125I-AII displacement
rabbit aortic rings = assay: Assay B: In vitro vascular smooth muscle response for AII (antagonist activity, pA2); type: cell-based; conditions: Oryctolagus cuniculus, two values in a cell = two determinations
Procedure: Assay B: In Vitro Vascular Smooth Muscle-Response for AII
The compounds of the invention were tested for antagonist activity in rabbit aortic rings. Male New Zealand white rabbits (2-2.5 kg) were sacrificed using an overdose of pentobarbital and exsanguinated via the carotid arteries. The thoracic aorta was removed, cleaned of adherent fat and connective tissue and then cut into 3-mm ring segments. The endothelium was removed from the rings by gently sliding a rolled-up piece of filter paper into the vessel lumen. The rings were then mounted in a water-jacketed tissue bath, maintained at 37° C., between moveable and fixed ends of a stainless steel wire with the moveable end attached to an FT03 Grass transducer coupled to a Model 7D Grass Polygraph for recording isometric force responses. The bath was filled with 20 ml of oxygenated (95% oxygen/5% carbon dioxide) Krebs solution of the following composition (mM): 130 NaCl, 15 NaHCO3, […], 1.2 NaH2PO4, 1.2 MgSO4, 2.5 CaCl2, and 11.4 glucose. The preparations were equilibrated for one hour before approximately one gram of passive tension was placed on the rings. Angiotensin II concentration-response curves were then recorded (3×10^−10 to 1×10^−5 M). Each concentration of AII was allowed to elicit its maximal contraction, and then AII was washed out repeatedly for 30 minutes before rechallenging with a higher concentration of AII. Aorta rings were exposed to the test antagonist at 10^−5 M for 5 minutes before challenging with AII. Adjacent segments of the same aorta ring were used for all concentration-response curves in the presence or absence of the test antagonist. The effectiveness of the test compound was expressed in terms of pA2 values and were calculated according to H. O. Schild [Br. J. Pharmacol. Chemother., 2, 189-206 (1947)]. The pA2 value is […] which increases the EC50 value for AII by a factor of two. Each test antagonist was evaluated in aorta rings from two rabbits.

pressor response to AII = assay: Assay C: In vivo intragastric pressor assay response for AII antagonists; parameters: species or system Sprague-Dawley rats; conditions: in vivo pressor response; for inhibition in vivo at 30 mg/kg: read-out: Assay C Inhibition

| Compound | IC50 [1] | Kb (rabbit aortic rings) | other results |
| --- | --- | --- | --- |
| COC(=O)CC[C@]1(O)CC[C@H]2[C@@H]3[C@H](C(=O)OC)CC4=CC(=O)CC[C@]4(C)C34O[C@@H]4C[C@@]21C (stereo partly shown) [Compound 2] | 95 nM | 42.7 nM | inhibition in vivo at 10 mg/kg (pressor response to AII; Rattus norvegicus, intraduodenal, 10 mg/kg intraduodenally): 95%; inhibition in vivo at 30 mg/kg (pressor response to AII; Rattus norvegicus, intraduodenal, 30 mg/kg intraduodenally): 98%; Assay C Duration (pressor response to AII; 10 mg/kg intraduodenally): 60 min; Assay C Duration (pressor response to AII; 30 mg/kg intraduodenally): 90 to 120 min |
| C[C@]12CCC(=O)C=C1[C@@H]1CC1[C@H]1[C@@H]3CC[C@@]4(CCC(=O)O4)[C@@]3(C)CC3O[C@]312 (stereo partly shown) [Compound 3] | 5.4 nM | 2 nM | inhibition in vivo at 10 mg/kg (pressor response to AII; Rattus norvegicus, po, 10 mg/kg intragastrically): 50%; inhibition in vivo at 30 mg/kg (pressor response to AII; Rattus norvegicus, po, 30 mg/kg intragastrically): 100%; Assay C Duration (pressor response to AII; 10 mg/kg intragastrically): >180 min; Assay C Duration (pressor response to AII; 30 mg/kg intragastrically): 200^+ min. |
| CCCCc1nn(Cc2cccc3ccccc23)c(=O)n1Cc1ccc(-c2ccccc2-c2nn[nH]n2)cc1 [Compound 99] | 280 nM | 316 nM | – |
| CCCCCn1nc(CCCC)n(Cc2ccc(-c3ccccc3-c3nn[nH]n3)cc2)c1=O [Compound 101] | 36 nM | 15.8 nM | – |
| CCCCc1nn(CC(OCC(=O)O)c2ccccc2)c(=O)n1Cc1ccc(-c2ccccc2-c2nn[nH]n2)cc1 (stereo not shown) [Compound 102] | 43 nM | 20 nM | – |
| CCCCc1nn(/C(Cc2ccccc2)=C(/OCc2ccccc2)c2ccccc2)c(=O)n1Cc1ccc(-c2ccccc2-c2nn[nH]n2)cc1 [Compound 104] | 15 nM | 10 nM | – |
| CCCCc1nn(C(Cc2ccccc2)C(=O)c2ccccc2)c(=O)n1Cc1ccc(-c2ccccc2-c2nn[nH]n2)cc1 (stereo not shown) [Compound 105] | 290 nM | 251 nM | – |
| CCCCc1nn(C(=O)CCC)c(=O)n1Cc1ccc(-c2ccccc2-c2nn[nH]n2)cc1 [Compound 106] | 48 nM | 20 nM | – |
| CCCCc1nn(C(CC(=O)OCC)C(=O)c2ccccc2)c(=O)n1Cc1ccc(-c2ccccc2-c2nn[nH]n2)cc1 (stereo not shown) [Compound 112] | 2000 nM | 6310 nM | – |
| CCCCn1nc(C(C#N)CCC)n(Cc2ccc(-c3ccccc3-c3nn[nH]n3)cc2)c1=O (stereo not shown) [Compound 117] | 170 nM | 316 nM | – |
| CCCCc1nc2c(CCC)nnc(O)c2n1Cc1ccc(-c2ccccc2-c2nnn[nH]2)cc1 [Compound 124] | – | 0.38 nM | inhibition in vivo at 3 mg/kg (pressor response to AII; Rattus norvegicus, po, 3 mg/kg intragastrically): 45%; Assay C Duration (pressor response to AII; 3 mg/kg intragastrically): >180 min |
| CCCCc1nc(Cc2ccc(-c3ccccc3C(=O)O)cc2)nn1CCCC [Compound 138] | 130 nM | 6.31 nM | – |
| CCCCc1cn(CCc2cccs2)c(=O)n1Cc1ccc(-c2ccccc2-c2nnn[nH]2)cc1 [Compound 145] | 0.48 nM | 200 nM | – |
| CCCCc1nc(CCCC)n(Cc2ccc(-n3c(Cl)cc(Cl)c3-c3nnn[nH]3)cc2)n1 [Compound 154] | 97 nM | 6.46 nM | – |
| CCCCn1nc(/C=C/c2cccs2)nc1Cc1ccc(-c2ccccc2-c2nnn[nH]2)nc1 [Compound 165] | 410 nM | 126 nM | – |
| CCCCCn1nc(CCCC)nc1Cc1ccc(-c2ccccc2-c2nnn[nH]2)nc1 [Compound 166] | 160 nM | 26.9 nM | – |
| CCCCCc1nc(Cc2ccc(-c3ccccc3-c3nnn[nH]3)nc2)n(CCCC)n1 [Compound 167] | 370 nM | 83.2 nM | – |
| CCCCn1nc(C(F)CCC)nc1Cc1ccc(-c2ccccc2-c2nnn[nH]2)nc1 (stereo not shown) [Compound 172] | 70 nM | 70.8 nM | – |
| CCCCn1nc(C(=O)NC(C)(C)C)nc1Cc1ccc(-c2ccccc2-c2nnn[nH]2)nc1 [Compound 184] | 1100 nM | 166 nM | – |
| CCCCc1cn(-c2ccccc2Cl)c(=O)n1Cc1ccc(-c2ccccc2-c2nnn[nH]2)nc1 [Compound 227] | 89 nM | 28.2 nM | – |
| CCCCc1cn(-c2c(C)cccc2C)c(=O)n1Cc1ccc(-c2ccccc2-c2nnn[nH]2)nc1 [Compound 233] | 84 nM | 3.09 nM | – |
| CCCCc1cn(CCCC)c(=O)n1Cc1ccc(-c2ncccc2-c2nnn[nH]2)cc1 [Compound 235] | 34 nM | 72.4 nM | – |
| CCCCc1nc(-c2ccccc2OC)n(Cc2ccc(-c3ccccc3-c3nnn[nH]3)nc2)n1 [Compound 277] | 190 nM | 288 nM | – |

Now from value to compound, other results behind:

| IC50 [1] | Compound | Kb (rabbit aortic rings) | other results |
| --- | --- | --- | --- |
| 22 nM | CCCCc1nn(CC(=O)O)c(=O)n1Cc1ccc(-c2ccccc2-c2nn[nH]n2)cc1 [Compound 98] | 7.94 nM | – |
| 4.4 nM | CCCCc1nn(CCC2CCCCC2)c(=O)n1Cc1ccc(-c2ccccc2-c2nn[nH]n2)cc1 [Compound 100] | 0.398 nM | – |
| 12 nM | CCCCc1nn(CCC(C)CC(C)(C)C)c(=O)n1Cc1ccc(-c2ccccc2-c2nn[nH]n2)cc1 (stereo not shown) [Compound 103] | 10 nM | – |
| 180 nM | CCCCc1nn(CC(=O)c2cc(OC)ccc2OC)c(=O)n1Cc1ccc(-c2ccccc2-c2nn[nH]n2)cc1 [Compound 107] | 5.01 nM | – |
| 590 nM | CCCCc1nn(Cc2ccc3ccccc3c2)c(=O)n1Cc1ccc(-c2ccccc2-c2nn[nH]n2)cc1 [Compound 110] | 398 nM | – |
| 400 nM | CCCCc1nn(CCCCC(=O)O)c(=O)n1Cc1ccc(-c2ccccc2-c2nn[nH]n2)cc1 [Compound 114] | 398 nM | – |
| 230 nM | CCCCc1nn(C/C=C/c2ccccc2)c(=O)n1Cc1ccc(-c2ccccc2-c2nn[nH]n2)cc1 [Compound 116] | 316 nM | – |
| 220 nM | CCCCc1nc(Cc2ccc(-c3ccccc3C(=O)O)cc2)n(CCCC)n1 [Compound 137] | 5.01 nM | – |
| 0.27 nM | CCCCc1nc(Cc2ccc(-c3ccccc3-c3nnn[nH]3)cc2)n(CCCC)n1 [Compound 139] | 501 nM | – |
| 0.031 nM | CCCCc1nc(Cc2ccc(-c3ccccc3-c3nnn[nH]3)cc2)nn1CCCC [Compound 140] | 7.94 nM | – |
| 0.11 nM | CCCCn1nc(C(F)(F)CCC)nc1Cc1ccc(-c2ccccc2-c2nnn[nH]2)cc1 [Compound 141] | 9.55 nM | – |
| 0.052 nM | CCCCc1cn(CCCC)c(=O)n1Cc1ccc(-c2ccccc2-c2nnn[nH]2)cc1 [Compound 143] | 20 nM | – |
| 0.088 nM | CCCCc1cn(CCc2ccccc2)c(=O)n1Cc1ccc(-c2ccccc2-c2nnn[nH]2)cc1 [Compound 144] | 20 nM | – |
| 0.072 nM | CCCCc1cn(-c2ccccc2Cl)c(=O)n1Cc1ccc(-c2ccccc2-c2nnn[nH]2)cc1 [Compound 146] | 398 nM | – |
| 1.1 nM | CCCc1cn(CCC)c(=O)n1Cc1ccc(-c2ccccc2-c2nnn[nH]2)cc1 [Compound 149] | 794 nM | – |
| 420 nM | CCCCc1nc(Cc2ccc(-c3ccccc3-c3nnn[nH]3)nc2)n(CC(CC)CC)n1 [Compound 168] | 20.4 nM | – |
| 180 nM | CCCCn1nc(C(F)F)nc1Cc1ccc(-c2ccccc2-c2nnn[nH]2)nc1 [Compound 174] | 51.3 nM | – |
| 88 nM | CCCn1nc(C(F)(F)CC)nc1Cc1ccc(-c2ccccc2-c2nnn[nH]2)nc1 [Compound 178] | 28.8 nM | – |
| 310 nM | CCCCn1nc(C(F)(F)CC)nc1Cc1ccc(-c2ccccc2-c2nnn[nH]2)nc1 [Compound 179] | 214 nM | – |
| 47 nM | CCCCn1nc(C(C)=O)nc1Cc1ccc(-c2ccccc2-c2nnn[nH]2)nc1 [Compound 194] | 22.9 nM | – |
| 150 nM | CCCCc1cn(-c2c(C)cc(C(C)(C)C)cc2C)c(=O)n1Cc1ccc(-c2ccccc2-c2nnn[nH]2)nc1 [Compound 244] | 67.6 nM | – |
| 72 nM | CCCCc1cn(-c2c(C(C)C)cccc2C(C)C)c(=O)n1Cc1ccc(-c2ccccc2-c2nnn[nH]2)nc1 [Compound 246] | 34.7 nM | – |
| 160 nM | CCCc1nc(CCC)n(Cc2ccc(-c3ccccc3-c3nnn[nH]3)nc2)n1 [Compound 257] | 234 nM | – |
| 350 nM | CCCCc1nc(C(F)(F)CCC)nn1Cc1ccc(-c2ccccc2-c2nnn[nH]2)nc1 [Compound 258] | 145 nM | – |
| 530 nM | CCCCc1nc(CC(CC)CC)nn1Cc1ccc(-c2ccccc2-c2nnn[nH]2)nc1 [Compound 262] | 603 nM | – |
| 270 nM | CCCCc1nc(-c2ccccc2Cl)n(Cc2ccc(-c3ccccc3-c3nnn[nH]3)nc2)n1 [Compound 279] | 8.71 nM | – |
| 480 nM | CCCCc1nc(-c2c(F)cccc2F)nn1Cc1ccc(-c2ccccc2-c2nnn[nH]2)nc1 [Compound 280] | 389 nM | – |
